Values joined by “and” are separate entries in the source; they are usually repeats but may differ in a detail not shown here. Identical values can stand only once.
Test system: 485176-168-R4-J1-PDC complex spheroid growth
Assay: Anticancer human tumor 485176-168-R4-J1-PDC patient-derived pancreatic adenocarcinoma cell line growth inhibition [RAS]
Settings: for viability, T/C: stronger effect = lower value
Description: RAS pathway inhibitors in Combinations in Complex Spheroids
A high-throughput screen of multi-cell type tumor spheroids was designed to identify active combinations of RAS pathway inhibitors and targeted small molecules. Complex spheroids include a stromal component modeled by human endothelial cells (HUVEC) and fibroblasts modeled by human mesenchymal stem cells (MSCs). The concentration ranges selected for each drug and investigational agent were based upon clinically achievable concentrations if the clinical Cmax of the agent was known.
Compounds. The drugs and investigational agents: abemaciclib (NSC768073), cobimetinib (NSC768068), divarasib (GDC6063, NSC841802), docetaxel (NSC628503), GDC-1971 (RLY-1971, NSC841576), gemcitabine (NSC613327), inavolisib (NSC800729), ipatasertib (NSC767898), KB-0742 (NSC834161), MRTX-1133 (NSC836407), osimertinib (NSC779217), RMC-4630 (NSC839698), RMC-6236 (NSC851965), RMC-6291 (NSC852671), Ro-3306 (NSC812927), sapanisertib (NSC764658), SN-38 (NSC673596), staurosporine (NSC755774), SY5609 (NSC837396), and tovorafenib (DAY101, NSC766906), were obtained from the National Cancer Institute (NCI) Developmental Therapeutics Program Chemical Repository. The FDA-approved anticancer drug set is available from the NCI Developmental Therapeutics Program. […] The stock solutions were prepared in dimethyl sulfoxide (DMSO, Sigma-Aldrich, St. Louis, MO, cat. D2650) at 800-fold the tested concentration and stored at -70 degrees C prior to their use. All drugs and investigational agents were tested over a range starting from a high concentration at or near the clinical Cmax and decreasing in half-log increments. If the clinical Cmax for an agent had not been determined, the highest concentration tested was 10 microM.
Cell Culture. All cells were maintained in an incubator at 37 degrees C and 5% CO2 with 95% humidity. The PDC lines were cultured according to standard operating procedures established by the NCI PDMR. All PDCs were thawed and cultured in Matrigel-coated flasks prepared with a working solution of 1X Ham's F-12 nutrient mix, without supplementation (Invitrogen, Waltham, MA, cat. 11765054), 100 U/mL penicillin-streptomycin (Invitrogen, cat. 15140122), and 2.5% Matrigel (Corning Inc., Corning, NY, cat. 354248) for the first three passages. The 362531-283-R-J2-PDC and 782815-120-R-J1-PDC lines were cultured in 6C/Colon 1B media, which includes advanced DMEM/F-12 (Thermo Fisher Scientific, cat. 12634028), 10 mM HEPES (Thermo Fisher Scientific, cat. 15630080), 1X GlutaMAX supplement (Thermo Fisher Scientific, cat. 35050061), 0.1 mg/mL primocin (InvivoGen, San Diego, CA, cat. ant-pm-2), 10% defined fetal bovine serum, heat inactivated (HyClone Laboratories Inc., Logan, UT, cat. SH30070.03HI), 50% L-WRN conditioned media (ATCC, cat. CRL-3276), 1.25 mM N-Acetyl-L-cysteine (Sigma-Aldrich, cat. A9165), 10 mM nicotinamide (Sigma-Aldrich, cat. N0636), 1X B-27 supplement (Thermo Fisher Scientific, cat. 17504044), 1X N-2 supplement (Thermo Fisher Scientific, cat. 17502048), 50 ng/mL human EGF (Thermo Fisher Scientific, cat. PHG0311), and 10 microM Y-27632 dihydrochloride (Tocris Bioscience, cat. 1254). The K12877-001-R-J1-PDC line was cultured in 6I media, which includes all 6C/Colon 1B media plus 10 ng/mL human FGF-10 (PeproTech, cat. 100-26), 1 ng/mL human FGF-2 (PeproTech, cat. 100-18B), 1 µM prostaglandin E2 (Tocris Bioscience, cat. 2296), […] hydrocortisone (Sigma-Aldrich, cat. H4001), and […] bovine insulin (Sigma-Aldrich, cat. I6634). The K86415-001-R-J1-PDC line was cultured in 6D media, which includes all 6C/Colon 1B media components minus the L-WRN conditioned media. The 485176-168-R4-J1-PDC was cultured in PANC media, which includes all 6C/Colon 1B media plus 100 ng/mL human FGF-10 (PeproTech, cat. 100-26), 500 nM SB-431542 (Selleckchem, cat. S1067), and 10 nM gastrin (Tocris Bioscience, cat. 3006). […]
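Further: spheroids exposed to compounds for seven days before readout.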
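Wherever viability, T/C is given: luminescence viability expressed relative to DMSO vehicle wells set as 100%.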

In the case of `C=CC(=O)Nc1cc(Nc2nccc(-c3cn(C)c4ccccc34)n2)c(OC)cc1N(C)CCN(C)C` + CCn1c(-c2cccnc2C(C)OC)c2c3cc(ccc31)N1CCOC(CC(NC(=O)C(C(C)C)N(C)C(=O)C3(F)CCN(C(=O)C#CC(C)(C)N(C)C)CC3)C(=O)N3CCCC(N3)C(=O)OCC(C)(C)C2)C1, the IC50 (curve of first compound, second compound 0.000949 µM) is reported as greater than 1000 nM, the IC50 (curve of first compound, second compound 0.003 µM) is reported as greater than 1000 nM and the IC50 (curve of first compound, second compound 0.00949 µM) is reported as greater than 1000 nM. The IC50 (curve of first compound, second compound 0.03 µM) was greater than 1000 nM, the IC50 (curve of first compound, second compound 0.0949 µM) was greater than 1000 nM and the IC50 (curve of first compound, second compound 0.3 µM) was greater than 1000 nM. For the same compound, the viability, T/C (second compound 0.000949 µM, first compound 0.00316 µM) was 114%, the viability, T/C (second compound 0.000949 µM, first compound 0.01 µM) was 109% and the viability, T/C (second compound 0.000949 µM, first compound 0.0316 µM) was 102%. It also gave a viability, T/C (second compound 0.000949 µM, first compound 0.1 µM) of 97.6%, a viability, T/C (second compound 0.000949 µM, first compound 0.316 µM) of 84.5% and a viability, T/C (second compound 0.000949 µM, first compound 1 µM) of 72%. It also gave a viability, T/C (second compound 0.003 µM, first compound 0.00316 µM) of 98.2%, a viability, T/C (second compound 0.003 µM, first compound 0.01 µM) of 105% and a viability, T/C (second compound 0.003 µM, first compound 0.0316 µM) of 90.3%. For the same compound, the viability, T/C (second compound 0.003 µM, first compound 0.1 µM) was 85.6%, the viability, T/C (second compound 0.003 µM, first compound 0.316 µM) was 99.1% and the viability, T/C (second compound 0.003 µM, first compound 1 µM) was 61.4%. The viability, T/C (second compound 0.00949 µM, first compound 0.00316 µM) was 104%, the viability, T/C (second compound 0.00949 µM, first compound 0.01 µM) was 109% and the viability, T/C (second compound 0.00949 µM, first compound 0.0316 µM) was 102%. For the same compound, the viability, T/C (second compound 0.00949 µM, first compound 0.1 µM) was 88.2%, the viability, T/C (second compound 0.00949 µM, first compound 0.316 µM) was 80.8% and the viability, T/C (second compound 0.00949 µM, first compound 1 µM) was 69%. For the same compound, the viability, T/C (second compound 0.03 µM, first compound 0.00316 µM) was 86.8%, the viability, T/C (second compound 0.03 µM, first compound 0.01 µM) was 113% and the viability, T/C (second compound 0.03 µM, first compound 0.0316 µM) was 114%. It also gave a viability, T/C (second compound 0.03 µM, first compound 0.1 µM) of 102%, a viability, T/C (second compound 0.03 µM, first compound 0.316 µM) of 89.9% and a viability, T/C (second compound 0.03 µM, first compound 1 µM) of 58.7%. It also gave a viability, T/C (second compound 0.0949 µM, first compound 0.00316 µM) of 81.6%, a viability, T/C (second compound 0.0949 µM, first compound 0.01 µM) of 77.9% and a viability, T/C (second compound 0.0949 µM, first compound 0.0316 µM) of 81.6%. The viability, T/C (second compound 0.0949 µM, first compound 0.1 µM) was 96.5%, the viability, T/C (second compound 0.0949 µM, first compound 0.316 µM) was 92.3% and the viability, T/C (second compound 0.0949 µM, first compound 1 µM) was 57.1%. It also gave a viability, T/C (second compound 0.3 µM, first compound 0.00316 µM) of 87.6%, a viability, T/C (second compound 0.3 µM, first compound 0.01 µM) of 93% and a viability, T/C (second compound 0.3 µM, first compound 0.0316 µM) of 82.7%. For the same compound, the viability, T/C (second compound 0.3 µM, first compound 0.1 µM) was 93.1%, the viability, T/C (second compound 0.3 µM, first compound 0.316 µM) was 78.3% and the viability, T/C (second compound 0.3 µM, first compound 1 µM) was 65.9%.

For `CCC(CC)c1cc(NC2CCC(N)C2)n2nccc2n1` (stereo not given), the viability, T/C (compound 0.0316 µM) was 105% [middle of 4 runs], the viability, T/C (compound 0.1 µM) was 93.7% [middle of 4 runs] and the viability, T/C (compound 0.316 µM) was 98.9% [middle of 4 runs]. The viability, T/C (compound 1 µM) was 80.6% [middle of 4 runs], the viability, T/C (compound 3.16 µM) was 3.56% [middle of 4 runs] and the viability, T/C (compound 10 µM) was 0.72% [middle of 4 runs]. The IC50 (curve of compound) was 1.58 µM [middle of 4 runs].

For `CC1(C)CCC(Nc2ncc(C(F)(F)F)c(-c3c[nH]c4c(P(C)(C)=O)c(C#N)ccc34)n2)CN1` (stereo not given), the viability, T/C (compound 0.000949 µM) was 110% (2×) and 103% and 111%, the viability, T/C (compound 0.003 µM) was 90.3% [middle of 4 runs] and the viability, T/C (compound 0.00949 µM) was 77.3% [middle of 4 runs]. For the same compound, the viability, T/C (compound 0.03 µM) was 62.6% [middle of 4 runs], the viability, T/C (compound 0.0949 µM) was 50.2% [middle of 4 runs] and the viability, T/C (compound 0.3 µM) was 49.1% [middle of 4 runs].

From PubChem BioAssay AID2060906 (Molecular Pharmacology Branch, DTP, NCI, 2025)
